Among the test systems are XF498; DMS-114; LXFL 529; M19-MEL; SNB-78; KM-20L2; DLD-1; RXF 631; HOP-18.
Holding throughout (assay): growth of human tumour cells (NCI), 48 h

Structures are written as SMILES.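 Briefly, cells in 96-well plates were exposed to five compound concentrations for 48 h, and endpoints were estimated by linear interpolation. GI50 marks 50% less growth.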 Active and inactive are the calls of the source. No stated cut-off is given here; in the data, active = GI50 up to about 1.1 µM and inactive = higher.

For the compound `Cc1ccc([N+](=O)[O-])cc1NC(=O)c1cccc([N+](=O)[O-])c1O`, the GI50 with XF498 was 18.2 µM (inactive); in the experiment with DMS-114, 8.73 µM (inactive); in the experiment with LXFL 529 it was 19.1 µM (inactive); in the experiment on M19-MEL, 15.5 µM (inactive); with SNB-78 it was 20.8 µM (inactive); in the experiment with KM-20L2 it was 25.5 µM (inactive). In addition, the GI50 with DLD-1 is 20.7 µM (inactive).

With `O=C(O)C1CCCCN1C(=O)c1ccccc1` (configuration not stated), the GI50 in the experiment on XF498, in the experiment with DMS-114, in the experiment on LXFL 529, with M19-MEL, in the experiment on SNB-78 and in the experiment with KM-20L2 was > 100 µM (inactive) in each case. Also, the GI50 with RXF 631, in the experiment on HOP-18 and in the experiment on DLD-1 was > 100 µM (inactive) throughout.

Consider `CC(=O)OCC1OC(N2C(=O)/C(=N\NC(N)=S)c3ccc([N+](=O)[O-])cc32)C(OC(C)=O)C1OC(C)=O` (configuration not stated), for which the GI50 with XF498 is 29.9 µM (inactive); in the experiment with DMS-114, 23.1 µM (inactive); in the experiment with LXFL 529 it was 50 µM (inactive); with M19-MEL it was 18.4 µM (inactive); with SNB-78, 33.3 µM (inactive); in the experiment on KM-20L2, 31.5 µM (inactive). Moreover, the GI50 in the experiment with HOP-18 was > 100 µM (inactive); in the experiment on DLD-1 it was 29.6 µM (inactive).

With `Nc1nnc2nc(CC(=O)/C=C/c3ccccc3)c(=O)[nH]n12`, the GI50 in the experiment with XF498, in the experiment with DMS-114, with LXFL 529, with M19-MEL, with SNB-78 and with KM-20L2 was > 100 µM (inactive) each time. Besides, the GI50 with RXF 631 and with DLD-1 was > 100 µM (inactive) throughout.

As for `CN(C)CCNC(=O)c1cccc2ccc(-c3cccnc3)nc12`, the GI50 in the experiment on DMS-114 was 6.52 µM (inactive); in the experiment on M19-MEL, 5.71 µM (inactive); in the experiment on SNB-78, 7.11 µM (inactive); with RXF 631, 3.48 µM (inactive); in the experiment on HOP-18, 13.7 µM (inactive); with DLD-1, 4.41 µM (inactive).

As to `C/N=C1\S/C(=N\c2ccc(N(C)C)cc2)N1C`, the GI50 with DMS-114 is 17.9 µM (inactive); with LXFL 529, 40.5 µM (inactive); in the experiment with M19-MEL it was 38 µM (inactive); with SNB-78, 22.9 µM (inactive); in the experiment on HOP-18, 35 µM (inactive); with DLD-1, 29.8 µM (inactive).

With `O=C1N2Cc3c4ccc5c3CN3C(=O)N6Cc7c(ccc(c7CN1C6(c1ccccc1)C23c1ccccc1)OCCOCCOc1cc(Br)c(Br)cc1OCCOCCO4)OCCOCCOc1cc(Br)c(Br)cc1OCCOCCO5` (configuration not stated), the GI50 in the experiment with DMS-114 is 41.2 µM (inactive); with LXFL 529, 67.3 µM (inactive); in the experiment on M19-MEL, > 100 µM (inactive); in the experiment on SNB-78 it was > 100 µM (inactive); in the experiment with KM-20L2, > 100 µM (inactive); in the experiment on RXF 631 it was > 100 µM (inactive). The GI50 was > 100 µM (inactive) with HOP-18 and 20.2 µM (inactive) in the experiment on DLD-1.

As for `Cn1c(=O)c(NC(=O)C(Cl)(Cl)Cl)nc2ccccc21`, the GI50 in the experiment on XF498, in the experiment on DMS-114, in the experiment with LXFL 529, in the experiment on M19-MEL, with SNB-78 and in the experiment with KM-20L2 was > 100 µM (inactive) in each case. The GI50 in the experiment on RXF 631 and in the experiment on DLD-1 was > 100 µM (inactive) in each case.

For `CCNC(=O)/C=C/CCC#Cc1ccc(-c2ccc(-c3cccs3)s2)s1`, the GI50 is 2.71 µM (inactive) in the experiment on XF498; > 100 µM (inactive) in the experiment with DMS-114; > 100 µM (inactive) in the experiment with LXFL 529; > 100 µM (inactive) in the experiment on M19-MEL; > 100 µM (inactive) in the experiment with SNB-78; > 100 µM (inactive) in the experiment with KM-20L2. For the same compound, the GI50 was 4.82 µM (inactive) with HOP-18 and > 100 µM (inactive) in the experiment on DLD-1.

As to `COc1cc2cc[n+](C)c(Cc3ccccc3)c2cc1OC`, the GI50 in the experiment with DMS-114 was 79.6 µM (inactive); in the experiment on LXFL 529 it was > 100 µM (inactive); in the experiment on M19-MEL, > 100 µM (inactive); in the experiment on SNB-78 it was > 100 µM (inactive); in the experiment on KM-20L2, > 100 µM (inactive); in the experiment with HOP-18, > 100 µM (inactive).

For `O=C(O)CCSC(=S)Nc1cccc(F)c1`, the GI50 is 19.6 µM (inactive) with DMS-114; 62.2 µM (inactive) in the experiment with LXFL 529; 28.2 µM (inactive) in the experiment with M19-MEL; 97.1 µM (inactive) in the experiment with SNB-78; 89.1 µM (inactive) with KM-20L2; > 100 µM (inactive) with HOP-18. Besides, the GI50 in the experiment with DLD-1 is 50.7 µM (inactive).

On to `CC1CCc2c(sc3ncnc(N/N=C/c4ccc(Cl)cc4)c23)C1` (configuration not stated), for which the GI50 was 22.8 µM (inactive) in the experiment with KM-20L2 and 33.6 µM (inactive) in the experiment with DLD-1.

`CC(=O)O[C@]12CCCCCCC1C1(O)C(O)CCC[C@H]12` (some centres not stated): the GI50 in the experiment on XF498, with DMS-114, with LXFL 529, in the experiment with M19-MEL, with SNB-78 and in the experiment on KM-20L2 was > 100 µM (inactive) in each case. Besides, the GI50 in the experiment on HOP-18 is > 100 µM (inactive).

Consider `CC1=NN(C(=O)c2cc(Cl)cc([N+](=O)[O-])c2)C(=O)C1/N=N/c1ccccc1C(=O)O` (configuration not stated), for which the GI50 in the experiment on LXFL 529, with M19-MEL, in the experiment on SNB-78, in the experiment on RXF 631, in the experiment on HOP-18 and in the experiment on DLD-1 was > 100 µM (inactive) in each case.

`CCC(C)COC(=O)c1ccc(/N=C\c2ccc(/C=N/c3ccc(C(=O)OCC(C)CC)cc3)cc2)cc1` (configuration not stated): the GI50 in the experiment with DMS-114, in the experiment on LXFL 529, with SNB-78, with KM-20L2, in the experiment on RXF 631 and in the experiment on HOP-18 was > 100 µM (inactive) in each case. Besides, the GI50 in the experiment on DLD-1 was > 100 µM (inactive).

Consider `c1ccc2c(NCCCCCCCCNc3c4ccccc4nc4ccccc34)c3ccccc3nc2c1`, for which the GI50 was 1.04 µM (active) in the experiment on XF498; 1.01 µM (active) in the experiment on DMS-114; 0.213 µM (active) in the experiment with LXFL 529; 1.08 µM (active) in the experiment on M19-MEL; 1.01 µM (active) with SNB-78; 0.354 µM (active) in the experiment with KM-20L2. Also, the GI50 in the experiment on RXF 631 is 0.178 µM (active); in the experiment with HOP-18, 1.76 µM (inactive); with DLD-1, 0.143 µM (active).

As for `C=CCN1C(=O)CS/C1=N\NC(=O)c1c(C)nc2sccn12`, the GI50 in the experiment with XF498, in the experiment with DMS-114, in the experiment with LXFL 529, in the experiment on M19-MEL, in the experiment on KM-20L2 and in the experiment on RXF 631 was > 100 µM (inactive) in each case. The GI50 in the experiment with HOP-18 and in the experiment with DLD-1 was > 100 µM (inactive) each time.

On to `O=C(Nc1c(-c2nc3ccccc3[nH]2)sc(=S)n1-c1ccccc1)c1ccccc1`, for which the GI50 was 98.9 µM (inactive) in the experiment with DMS-114; 58.9 µM (inactive) in the experiment with LXFL 529; > 100 µM (inactive) with M19-MEL; 61.7 µM (inactive) in the experiment with SNB-78; > 100 µM (inactive) in the experiment on RXF 631; > 100 µM (inactive) in the experiment on HOP-18. The GI50 with DLD-1 was > 100 µM (inactive).

In the case of `CCOC(=O)CCc1c(C)c2c(OC(C)=O)cc(OC(C)=O)cc2oc1=O`, the GI50 with DMS-114 was 23.4 µM (inactive); in the experiment on LXFL 529, 37.4 µM (inactive); with M19-MEL, 61.9 µM (inactive); in the experiment on SNB-78, 47.6 µM (inactive); with KM-20L2, > 100 µM (inactive); with HOP-18, > 100 µM (inactive). Further, in the experiment with DLD-1, the GI50 was 46 µM (inactive).

Take `CC(C)C1COC(C(C)(C)C2=N[C@@H](C(C)C)CO2)=N1` (some centres not stated): the GI50 with XF498, with DMS-114, with LXFL 529, in the experiment on M19-MEL, in the experiment on KM-20L2 and with RXF 631 was > 100 µM (inactive) each time. Further, the GI50 in the experiment with HOP-18 and with DLD-1 was > 100 µM (inactive) throughout.

`NC(=O)NC(=O)C1CCC(=O)N1S(=O)(=O)c1ccc(Cl)cc1` (configuration not stated): the GI50 in the experiment on XF498, in the experiment with DMS-114, in the experiment with LXFL 529, with M19-MEL, in the experiment on KM-20L2 and in the experiment with RXF 631 was > 100 µM (inactive) each time. The GI50 in the experiment on HOP-18 and with DLD-1 was > 100 µM (inactive) throughout.

For `CCOCC(=O)N[C@H]1CCc2cc(OC)c(OC)c(OC)c2-c2ccc(OC)c(=O)cc21`, the GI50 in the experiment with XF498 is 0.0138 µM (active); in the experiment with DMS-114, 0.0148 µM (active); with LXFL 529 it was 0.024 µM (active); in the experiment on M19-MEL it was < 0.0202 µM (active); in the experiment with SNB-78, < 0.0147 µM (active); in the experiment on KM-20L2 it was 0.0118 µM (active). In the experiment with DLD-1, the GI50 is 0.019 µM (active).

Take `COc1ccc(C2NCCc3c2[nH]c2ccccc32)cc1` (configuration not stated): the GI50 is 28.1 µM (inactive) in the experiment on XF498; 95.3 µM (inactive) in the experiment on LXFL 529; > 100 µM (inactive) in the experiment with M19-MEL; > 100 µM (inactive) in the experiment on KM-20L2; 67 µM (inactive) in the experiment with RXF 631; 58.7 µM (inactive) in the experiment with HOP-18. Also, the GI50 with DLD-1 is > 100 µM (inactive).

Turning to `CCN(CC)CCOC(=O)c1ccc(N)cc1.CCOC(=O)Nc1ccc(S(=O)(=O)OC)cc1.CCOC(=O)Nc1ccc(S(=O)(=O)OC)cc1.Nc1ccc(C(=O)O)c(O)c1`, the GI50 in the experiment with DMS-114, in the experiment with LXFL 529, with M19-MEL, in the experiment with SNB-78, in the experiment on KM-20L2 and in the experiment with RXF 631 was > 100 µM (inactive) in each case. For the same compound, the GI50 in the experiment on HOP-18 and with DLD-1 was > 100 µM (inactive) each time.

For the origin of these results see ChEMBL document CHEMBL1201862, “PubChem BioAssay data set” (2004).
